Results published in patent US6399824B1, “Substituted cinnamic, acid guanidides, process for their preparation, their use as a medicament, and medicament comprising them” (Aventis Pharma Deutschland GmbH, priority 2000, dated 2002).
Structures can show the parent of a compound that is named as a salt.

Tests used:
[1] = target: T1, rNHE3 (Rattus norvegicus, UniProt P26433); assay: Recovery of intracellular pH (pHi) after acidification, BCECF fluorescence, NHE inhibition; type: cell-based; conditions: pH recovery recorded 3 minutes for NHE3; bicarbonate-free conditions
T1 construct: expressed in transfected cells
T1 sequence (P26433 29-831): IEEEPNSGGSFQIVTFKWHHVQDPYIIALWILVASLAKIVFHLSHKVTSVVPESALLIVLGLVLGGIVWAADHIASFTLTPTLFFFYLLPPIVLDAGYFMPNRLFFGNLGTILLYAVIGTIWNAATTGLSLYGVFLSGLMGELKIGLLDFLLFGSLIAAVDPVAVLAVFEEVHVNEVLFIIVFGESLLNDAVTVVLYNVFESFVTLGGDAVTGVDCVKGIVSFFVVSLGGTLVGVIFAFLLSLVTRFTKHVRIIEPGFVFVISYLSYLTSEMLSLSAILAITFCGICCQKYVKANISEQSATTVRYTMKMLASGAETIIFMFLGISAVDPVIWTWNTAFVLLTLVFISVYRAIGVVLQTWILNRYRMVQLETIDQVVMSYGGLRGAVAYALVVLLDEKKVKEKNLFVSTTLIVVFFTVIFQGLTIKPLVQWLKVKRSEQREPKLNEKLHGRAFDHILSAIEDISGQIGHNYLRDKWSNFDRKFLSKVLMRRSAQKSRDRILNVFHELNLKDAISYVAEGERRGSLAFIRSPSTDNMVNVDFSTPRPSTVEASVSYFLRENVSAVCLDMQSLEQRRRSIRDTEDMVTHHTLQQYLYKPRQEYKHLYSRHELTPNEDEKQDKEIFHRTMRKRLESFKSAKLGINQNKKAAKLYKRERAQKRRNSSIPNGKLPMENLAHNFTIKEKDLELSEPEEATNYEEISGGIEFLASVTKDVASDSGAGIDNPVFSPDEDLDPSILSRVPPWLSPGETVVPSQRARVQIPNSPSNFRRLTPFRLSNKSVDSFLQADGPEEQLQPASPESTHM
Method: In this test, the recovery of the intracellular pH (pHi) which commences with functional NHE after acidification even under bicarbonate-free conditions. For this, the pHi was determined using the pH-sensitive fluorescent dye BCECF (Calbiochem, the precursor BCECF-AM is employed). The cells were first loaded with BCECF. The BCECF fluorescence was determined in a ratio fluorescence spectrometer (Photon Technology International, South Brunswick, N.J., USA) at excitation wavelengths of 505 and 440 nm and an emission wavelength of 535 nm and converted into the pHi by means of calibration curves. During BCECF loading, the cells were already incubated in NH4Cl buffer (pH 7.4) (NH4Cl buffer: 115 mM NaCl, 20 mM NH4Cl, 5 mM KCl, 1 mM CaCl2, 1 mM MgSO4, 20 mM Hepes, 5 mM glucose, 1 mg/ml of BSA; a pH of 7.4 is set using 1 M NaOH). The intracellular acidification was induced by addition of 975 μl of an NH4Cl-free buffer (see below) to 25 μl aliquots of the cells incubated in NH4Cl buffer. The subsequent rate of the pH recovery was recorded for 2 minutes in the case of NHE1, for 5 minutes in the case of NHE2 and 3 minutes in the case of NHE3. For the calculation of the inhibitory potency of the tested substances, the cells were first investigated in buffers in which a complete recovery or no pH recovery at all took place. For complete pH recovery (100%), the cells were incubated in Na^+-containing buffer (133.8 mM NaCl, 4.7 mM KCl, 1.25 mM CaCl2, 1.25 mM MgCl2, 0.97 mM Na2HPO4, 0.23 mM NaH2PO4, 5 mM Hepes, 5 mM glucose, a pH of 7.0 is set using 1 M NaOH). For the determination of the 0% value, the cells were incubated in an Na^+-free buffer (133.8 mM choline chloride, 4.7 mM KCl, 1.25 mM CaCl2, 1.25 mM MgCl2, 0.97 mM K2HPO4, 0.23 mM KH2PO4, 5 mM Hepes, 5 mM glucose, a pH of 7.0 is set using 1 M NaOH). The substances to be tested were applied in the Na^+-containing buffer. The recovery of the intracellular pH at any tested concentration of a substance was expressed as a percentage of the maximum recovery. By means of the program Sigma Plot, the IC50 value of the respective substance for the individual NHE subtypes was calculated from the percentage values of the pH recovery.

[2] = Solubility by UV spectroscopy in 0.9% strength NaCl solution; type: physicochemical; conditions: 0.9% NaCl solution, saline or isotonic
Method: The solubilities indicated below are determined by UV spectroscopy in a 0.9% strength NaCl solution.

| IC50 [1] [nM] | solubility [2] [µg/mL] | Compound |
| --- | --- | --- |
| 70 |  | C/C(=C\c1cc(F)c(Oc2ccc(S(N)(=O)=O)cc2)c(F)c1)C(=O)N=C(N)N [Example 1, 4-[2,6-Difluoro-4-(3-guanidino-2-methyl-3-oxopropenyl)phenoxy]benzenesulfonamide; HCl salt] |
| 20 |  | C/C(=C\c1cc(F)c(Oc2ccc(S(N)(=O)=O)cc2)c(F)c1)C(=O)N=C(N)N [Example 2, 4-[2,6-Difluoro-4-(3-guanidino-2-methyl-3-oxopropenyl)phenoxy]benzenesulfonamide; methanesulfonate] |
| 130 |  | C/C(=C\c1ccc(Oc2ccc(S(N)(=O)=O)cc2)cc1)C(=O)N=C(N)N [Example 3, 4-[4-(3-Guanidino-2-methyl-3-oxopropenyl)phenoxy]benzenesulfonamide; HCl salt] |
| 620 |  | C/C(=C\c1ccc(Nc2ccc(S(N)(=O)=O)cc2)cc1)C(=O)N=C(N)N [Example 4, 4-[4-(3-Guanidino-2-methyl-3-oxopropenyl)phenylamino]benzenesulfonamide; trifluoroacetate] |
| 1200 |  | C/C(=C\c1ccc(Nc2cccc(S(N)(=O)=O)c2)cc1)C(=O)N=C(N)N [Example 5, 3-[4-(3-Guanidino-2-methyl-3-oxopropenyl)phenylamino]benzenesulfonamide, trifluoroacetate] |
| 60 | 1860 | C/C(=C\c1cc(F)c(Oc2ccc(S(=O)(=O)NCCN(C)C)cc2)c(F)c1)C(=O)N=C(N)N.Cl.Cl [Example 6, 4-[2 ,6-Difluoro-4-(3-guanidino-2-methyl-3-oxopropenyl)phenoxy]-N-(2-dimethylaminoethyl)benzenesulfonamide, HCl salt] |
| 2600 | > 2190 | C/C(=C\c1cc(F)c(Oc2ccc(S(=O)(=O)N3CCN(C)CC3)cc2)c(F)c1)C(=O)N=C(N)N [Example 7, N-(3-{3,5-Difluoro-4-[4-(4-methylpiperazin-1-sulfonyl)phenoxy]phenyl}-2-methyl-acryloyl)guanidine; trifluoroacetate] |
| 90 |  | CNC(=O)NS(=O)(=O)c1ccc(Oc2c(F)cc(/C=C(\C)C(=O)N=C(N)N)cc2F)cc1 [Example 8, 4-[2 ,6-Difluoro-4-(3-guanidino-2-methyl-3-oxopropenyl)phenoxy]benzenesulfone N-(carboxy-N′-methylamid)amide; HCl salt] |
| 70 |  | CCNC(=O)NS(=O)(=O)c1ccc(Oc2c(F)cc(/C=C(\C)C(=O)N=C(N)N)cc2F)cc1 [Example 9, 4-[2,6-Difluoro-4-(3-guanidino-2-methyl-3-oxopropenyl)phenoxy]benzenesulfone N-(carboxy-N′-ethylamid)amide; HCl salt] |
| 1100 | 1280 | C/C(=C\c1ccc(Nc2ccc(S(=O)(=O)NCCN(C)C)cc2)cc1)C(=O)N=C(N)N.Cl.Cl [Example 10, N-(2-Dimethylaminoethyl)-4-[4-(3-guanidino-2-methyl-3-oxopropenyl)phenylamino]-benzenesulfonamide; HCl salt] |
| 850 | 1520 | C/C(=C\c1ccc(Nc2ccc(S(=O)(=O)NCCN3CCCC3)cc2)cc1)C(=O)N=C(N)N.Cl.Cl [Example 11, 4-[4-(3-Guanidino-2-methyl-3-oxopropenyl)phenylamino]-N-(2-pyrrolidin-1-ylethyl)-benzenesulfonamide; HCl salt] |
| 2600 | 1760 | C/C(=C\c1ccc(Nc2ccc(S(=O)(=O)N3CCN(C)CC3)cc2)cc1)C(=O)N=C(N)N.Cl.Cl [Example 12, N-(2-Methyl-3-{4-[4-(4-methylpiperazine-1-sulfonyl)phenylamino]phenyl}acryloyl)-guanidine; HCl salt] |
| 590 | 3080 | C/C(=C\c1ccc(Nc2ccc(S(=O)(=O)N(C)C3CCN(C)C3)cc2)cc1)C(=O)N=C(N)N.Cl.Cl (centres unmarked) [Example 13, 4-[4-(3-Guanidino-2-methyl-3-oxopropenyl)phenylamino]-N-methyl-N-(1-methyl-pyrrolidin-3-yl)benzenesulfonamide, HCl salt] |
| 850 |  | CNS(=O)(=O)c1ccc(Nc2ccc(/C=C(\C)C(=O)N=C(N)N)cc2)cc1 [Example 14, 4-[4-(3-Guanidino-2-methyl-3-oxopropenyl)phenylamino]-N-methylbenzenesulfonamide; HCl salt] |
